Assay type in all cases: physicochemical
A short description of series [1]: Thermal stability of solid samples (3 days at 100° C., hplc). Conditions: for increase in organic impurities: hplc, by area.
Series [2] is described as follows: Solubility in water.
Series [3] is described as follows: Hygroscopicity / water content (Karl Fischer analysis). An excerpt:
The present invention provides (S)-7-[(4,4′-bipiperidin- 1-yl)carbonyl]-2,3,4,5-tetrahydro-4-methyl-3-oxo-1H-1,4-benzodiazepine-2-acetic acid, hydrochloride, formula (I), as a novel material, and, in particular, as a pharmaceutically acceptable form. The material crystallizes preferably with one mole of HCl, and appears to exist in a generally anhydrous form. Although small amounts of water may be detected by Karl Fischer analysis, this is generally less than 1-2% w/w of the drug substance, and it appears to be consistent irrespective of the storage conditions. […] Accordingly, the hydrochloride salt form offers significant advantages for bulk material consistency, handling, and formulation.

A short description of series [4]: Thermal stability over an extended period (shelf life). The note with it: impairs shelf life.

These results are taken from US6335330B1, “Crystalline pharmaceutical product” (SmithKline Beecham Corporation, priority 1996, dated 2002).

Structures can show the parent of a compound that is named as a salt. Where two headings read alike, the source gives them in different places.

Turning to `CN1Cc2cc(C(=O)N3CCC(C4CCNCC4)CC3)ccc2N[C@@H](CC(=O)O)C1=O` [HCl Salt, (S)-7-[(4,4′-bipiperidin-1-yl)carbonyl]-2,3,4,5-tetrahydro-4-methyl-3-oxo-1H-1,4-benzodiazepine-2-acetic acid, hydrochloride], in series [1] (hydrochloride), the “increase in organic impurities” value is reported as “no increase” and the “Thermal Stability” value is “Stable”. Further, in series [2], the “dissolution and solubility in water (in words)” value was “enhanced dissolution and solubility in water”; the “solubility in water relative to the zwitterion” value is listed as “about ten”. For the same compound, the “water detected by Karl Fischer analysis” value in series [3] (consistent irrespective of the storage conditions) is reported as 1-2 % w/w. For the same compound, the “Hygroscopicity (% w/w Karl Fischer analysis)” value in series [3] (t = 0, hydrochloride) amounted to 0.9 % w/w. In addition, the “Hygroscopicity (% w/w Karl Fischer analysis)” value in series [3] (t = 21 days, hydrochloride) turned out to be 0.8 % w/w.
As to `CN1Cc2cc(C(=O)N3CCC(C4CCNCC4)CC3)ccc2N[C@@H](CC(=O)O)C1=O` [Zwitterion, (S)-7-[(4,4′-bipiperidin-1-yl)carbonyl]-2,3,4,5-tetrahydro-4-methyl-3-oxo-1H-1,4-benzodiazepine-2-acetic acid], in series [1], the “Thermal Stability” value is listed as “some degradation,” and the “increase in organic impurities” value is given as “impurities by 1.3% (hplc,”. The “water taken up on equilibration” value in series [3] (equilibrating species) is on record as “about six”. The “hygroscopicity (in words)” value in series [3] (material prepared according to WO 95/18619) is reported as “hygroscopic”. The “Hygroscopicity (% w/w Karl Fischer analysis)” value in series [3] (t = 0) was 5.6 % w/w. In addition, in series [3] (t = 21 days), the “Hygroscopicity (% w/w Karl Fischer analysis)” value stood at 20.1 % w/w.
In the case of `CN1Cc2cc(C(=O)N3CCC(C4CCNCC4)CC3)ccc2N[C@@H](CC(=O)O)C1=O` [trifluoroacetate salt], in series [4], the “thermal stability for an extended period” value is listed as “not thermally stable for an extended period”.
